The target in this test is T1, TRAP activity in lysates of murine MPI alveolar macrophages (Mus musculus, UniProt Q05117).
T1 construct: endogenous in cells; host or cells: murine MPI alveolar-like macrophages
T1 sequence (Q05117 23-327): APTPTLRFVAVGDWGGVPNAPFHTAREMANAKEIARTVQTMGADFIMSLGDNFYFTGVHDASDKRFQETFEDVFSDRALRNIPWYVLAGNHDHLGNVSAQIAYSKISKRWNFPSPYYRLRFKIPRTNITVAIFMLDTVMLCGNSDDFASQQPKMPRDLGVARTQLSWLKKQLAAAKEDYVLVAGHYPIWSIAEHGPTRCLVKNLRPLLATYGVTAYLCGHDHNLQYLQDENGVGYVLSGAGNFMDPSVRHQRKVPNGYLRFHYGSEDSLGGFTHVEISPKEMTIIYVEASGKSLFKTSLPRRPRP
As to the kind of experiment: TRAP activity assay on MPI alveolar macrophage lysates. Type of test: biochemical. Particulars: cell lysates of murine MPI alveolar macrophages; mean ± standard error, n = 3. The procedure:
Mouse alveolar macrophage lysates were obtained by resuspending 500.000 MPI macrophages in 300 μl acetate buffer. Human lung lysates from COPD patients were used to test the inhibitor on human TRAP present in lung tissue. Lysates from in total 18 COPD patients were pooled (see Supplementary Table S3 for patient characteristics).
AubipyOMe was tested in the range 0–40 μM with MPI cell lysates or pooled lung tissue lysates from COPD patients using a TRAP activity assay. Lysates were incubated at 37 °C for 30 min in the presence of PNPP solution (1:1 ratio). 1M NaOH was added to stop the reaction and absorption was measured at 410 nm with 490 nm as a reference value.
The inhibitory effects of gold compounds were calculated as the ratio of absorbance between the treated and untreated wells. The IC50 values were calculated using nonlinear curve fitting with a variable slope in Graphpad Prism 6 (Graphpad Software, la Jolla, USA). An average IC50 of three independent experiments was calculated.
Identification of TRAP inhibitors […]
Inhibitor dilutions were prepared in acetate buffer from freshly prepared stock solutions (10 mM in DMSO). […] To stop the reaction, 1M NaOH was added and absorption at 410 nm, with 490 nm as a reference value, was measured using a spectrophotometer. […]
The inhibitory effects of gold compounds were calculated as the ratio of absorbance between the treated and untreated wells. […]

In turn, `COc1ccnc(-c2cc(OC)ccn2)c1.F[P-](F)(F)(F)(F)F.[Cl][Au+][Cl]` [AubipyOMe, [Au(4,4′-dimethoxy-2,2′-bipyridine)Cl2][PF6]] displayed an IC50 of 1700 ± 400 nM.

Source of the values: publication PMC5626781, “A Potent Tartrate Resistant Acid Phosphatase Inhibitor to Study the Function of TRAP in Alveolar Macrophages” (Scientific Reports, 2017).
